This test deals with influenza A strains. Briefly: microbe, parasite or virus in culture. The class given is cell-based. The note with it: H3N2, MDCK, read-out: Cell Protection Assay EC50 ± SD, A/Texas/12/2007, H3N2, amantadine resistance (phenotypic), oseltamivir carboxylate resistance NA 119V.

The results in this text go back to patent US11345700B2, “Methods of preparing inhibitors of influenza viruses replication” (priority 2013, dated 2022).

`O=C(O)[C@H]1[C@H]2CC[C@H](CC2)[C@@H]1Nc1nc(-c2c[nH]c3ncc(F)cc23)ncc1F` [Compound (1)]: the EC50 worked out at 0.65 ± 0.22 nM.
